Like-named read-outs stand apart in the source and are kept apart here.
Columns and labels:
[1] = system: bovine aortic endothelial cell (BAEC); test: bovine aortic endothelial cell (BAEC) proliferation assay (MTT); format: cell-based; details: for IC50: Bos taurus; for activity in the BAEC proliferation assay: result in words
Protocol: BAEC were trypsinized and plated into 96-well plates at a density of 2000 cells per well. After the cells adhered to the plate, compounds dissolved in ethanol (final concentration of 0.5%) were added to the cultures.
(§1) Synthesis was according to the procedures as described in Mauri et al., Chem. Pharm. Bull. […] Bull.

[2] = target: T1, recombinant human MetAP2 (Homo sapiens, UniProt P50579); test: methionine aminopeptidase activity of MetAP2 (Met-Gly-Met-Met substrate); format: biochemical
T1 construct: made in house; host or cells: insect cells
T1 sequence (P50579 whole entry): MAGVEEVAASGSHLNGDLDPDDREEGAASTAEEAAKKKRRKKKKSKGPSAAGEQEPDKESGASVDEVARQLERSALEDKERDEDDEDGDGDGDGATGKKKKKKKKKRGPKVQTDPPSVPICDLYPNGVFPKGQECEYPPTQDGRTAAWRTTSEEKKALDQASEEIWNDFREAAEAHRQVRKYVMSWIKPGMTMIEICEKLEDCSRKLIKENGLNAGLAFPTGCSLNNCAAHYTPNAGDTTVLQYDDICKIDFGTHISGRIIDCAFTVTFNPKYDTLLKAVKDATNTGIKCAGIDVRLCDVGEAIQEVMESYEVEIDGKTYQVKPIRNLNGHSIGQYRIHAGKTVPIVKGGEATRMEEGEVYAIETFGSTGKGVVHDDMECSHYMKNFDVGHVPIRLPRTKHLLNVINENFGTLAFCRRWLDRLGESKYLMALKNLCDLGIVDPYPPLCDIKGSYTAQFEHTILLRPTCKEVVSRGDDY
Protocol: Recombinant human MetAP2 was expressed and purified from insect cells as described in Li and Chang, Biochem. Biophys. Res. Commun. […] Released methionine was quantified at different time points (0, 2, 3 and 5 min) using the method of Zuo et al., Mol. Gen.
as §1

[3] = target: T1, recombinant human MetAP2; test: MetAP2 inhibition of eIF-2α phosphorylation by heme-regulated inhibitor kinase (HRI); format: biochemical; details: compared with unbound MetAP2
Protocol: Modified or control MetAP2 (0.6 μg) was incubated with purified eIF-2 (0.3 μg) in 20 mM Tris·HCl, pH 7.8, 40 mM KCl, and 2 mM MgAC2 on ice for 1 hr. Recombinant HRI (0.25 ng) and [γ-^32P]ATP were then added to a final total volume of 20 μl and the reaction mixture was further incubated at 37° C. for 10 min. The labeled eIF-2α was analyzed by 10% SDS-PAGE followed by autoradiography. The phosphorylated bands were quantified by NIH Image 1.60 software.

[4] = system: Wild-type [YPH500] yeast cells; test: yeast growth on YEPD plates containing drug, wild type; format: cell-based, Saccharomyces cerevisiae; details: 50 nM drug, YEPD plate, 30° C., four days
Source text: (§2) […]. […] […].

[5] = system: map1 null [XLP101 (map1::HIS3)] yeast cells; test: yeast growth on YEPD plates containing drug, map1 null; format: cell-based, Saccharomyces cerevisiae; details: 50 nM drug, YEPD plate, 30° C., four days
Source text: as §2

[6] = system: map2 null [XLP201 (map2::URA3)] yeast cells; details: 50 nM drug, YEPD plate, 30° C., four days
Protocol: To further test the specificity of these drugs, both wild type and mutant yeast strains lacking either MetAP1 (map1) or MetAP2 (map2) were plated onto media containing the two drugs. […] The plates were incubated at 30° C. for four days.

[7] = target: T2, recombinant yeast MetAP1 (Saccharomyces cerevisiae, UniProt Q01662); test: MetAP activity of recombinant yeast MetAP1 in vitro; format: biochemical; details: concentrations up to 10 μM
T2 sequence (Q01662 1-387): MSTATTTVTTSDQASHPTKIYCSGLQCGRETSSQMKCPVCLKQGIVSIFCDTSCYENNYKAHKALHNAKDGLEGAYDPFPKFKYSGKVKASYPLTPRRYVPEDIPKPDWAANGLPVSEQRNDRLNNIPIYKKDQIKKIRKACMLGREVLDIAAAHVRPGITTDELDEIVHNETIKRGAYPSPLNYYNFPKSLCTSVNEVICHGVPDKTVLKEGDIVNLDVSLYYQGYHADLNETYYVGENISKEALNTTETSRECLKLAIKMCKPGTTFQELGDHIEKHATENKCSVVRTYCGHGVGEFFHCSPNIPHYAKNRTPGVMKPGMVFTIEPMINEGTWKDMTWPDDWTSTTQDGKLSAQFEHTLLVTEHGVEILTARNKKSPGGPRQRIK

[8] = target: recombinant yeast MetAP2 (Saccharomyces cerevisiae, UniProt P38174); test: MetAP activity of recombinant yeast MetAP2 in vitro; format: biochemical; details: concentrations as low as 5 nM
Sequence of recombinant yeast MetAP2 (P38174 whole entry): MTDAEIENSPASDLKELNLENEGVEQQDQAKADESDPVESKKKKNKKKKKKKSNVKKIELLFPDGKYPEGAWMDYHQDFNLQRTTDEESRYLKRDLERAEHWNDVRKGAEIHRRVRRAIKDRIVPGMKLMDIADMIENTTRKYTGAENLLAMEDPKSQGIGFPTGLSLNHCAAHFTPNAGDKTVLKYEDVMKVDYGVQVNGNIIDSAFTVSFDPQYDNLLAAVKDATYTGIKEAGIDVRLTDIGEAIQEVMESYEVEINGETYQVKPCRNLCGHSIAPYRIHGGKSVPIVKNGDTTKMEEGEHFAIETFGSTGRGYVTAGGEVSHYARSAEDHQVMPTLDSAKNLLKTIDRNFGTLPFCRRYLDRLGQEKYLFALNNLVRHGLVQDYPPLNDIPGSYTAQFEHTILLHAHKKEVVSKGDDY

[9] = target: T3, 67 kD (p67) (Bos taurus, UniProt Q3ZC89); test: competition of ovalicin photoaffinity labeling in BAEC extracts; format: binding, bovine; details: BAEC extract preincubated with excess cold competitor
T3 construct: endogenous in cells; host or cells: BAEC (bovine aortic endothelial cells) extract
T3 sequence (Q3ZC89 whole entry): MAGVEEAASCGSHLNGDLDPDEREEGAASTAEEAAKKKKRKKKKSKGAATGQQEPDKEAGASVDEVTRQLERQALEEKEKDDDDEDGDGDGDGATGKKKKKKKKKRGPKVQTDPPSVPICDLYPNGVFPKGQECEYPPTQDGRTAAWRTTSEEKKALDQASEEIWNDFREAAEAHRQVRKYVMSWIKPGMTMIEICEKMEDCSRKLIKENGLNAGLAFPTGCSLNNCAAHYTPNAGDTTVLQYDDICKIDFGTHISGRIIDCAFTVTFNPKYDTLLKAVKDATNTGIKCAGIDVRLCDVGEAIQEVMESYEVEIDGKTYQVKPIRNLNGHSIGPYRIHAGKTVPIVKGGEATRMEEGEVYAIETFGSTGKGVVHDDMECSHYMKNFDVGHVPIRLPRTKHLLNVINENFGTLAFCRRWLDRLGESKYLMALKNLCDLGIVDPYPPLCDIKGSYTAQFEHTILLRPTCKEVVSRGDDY
Protocol: Photoaffinity labeling was performed as follows. […] Reaction mixtures were incubated on ice in the dark for 1 hr and then irradiated at 254 nm (0.2 J/cm^2). Reactions were quenched by adding 1.5 μl β-mercaptoethanol followed by 7.5 μl 5×SDS sample buffer and heated in a boiling water bath for 3 min. Samples were analyzed by 10% SDS/PAGE, followed by autoradiography.

[10] = target: T1, recombinant human MetAP2; test: covalent binding to MetAP2 (biotin conjugates, denaturing SDS-PAGE, streptavidin-HRP); details: drug-protein complex maintained under denaturing conditions
Protocol: The protein samples were boiled in a sample buffer containing SDS and β-mercaptoethanol, subjected to SDS-PAGE, and transferred to nitrocellulose.
100 ng of recombinant human MetAP2 was incubated in 40 μl binding buffer (20 mM Tris·HCl, pH 7.1, 100 mM KCl, 0.2% Triton X-100) in the presence or absence of competitors for 1 hr followed by incubation with the biotin conjugates (1 μM) at 4° C. for 2 hr. 40 μl of 2×SDS sample buffer containing β-mercaptoethanol was added and the samples were boiled for 10 min. Following SDS-PAGE, the samples were transferred to nitrocellulose at 50V for 1 hr at 4° C. and blocked overnight in blocking solution (5% BSA, 2% Nonfat milk, 0.02% NaN3 in PBS). The membrane was incubated with rabbit anti-human MetAP2 antibodies (1:500) for 1 hr at room temperature, followed by incubation with sheep anti-rabbit IgG-HRP or incubated with streptavidin-HRP (1:1000) for 1 hr and visualized with the chemilluminescent ECL kit (Amersham, Arlington Heights, Ill.), as per manufacturer's instructions.

[11] = target: p67 (MetAP2) (Mus musculus, UniProt O08663)
Sequence of p67 (MetAP2) (O08663 whole entry): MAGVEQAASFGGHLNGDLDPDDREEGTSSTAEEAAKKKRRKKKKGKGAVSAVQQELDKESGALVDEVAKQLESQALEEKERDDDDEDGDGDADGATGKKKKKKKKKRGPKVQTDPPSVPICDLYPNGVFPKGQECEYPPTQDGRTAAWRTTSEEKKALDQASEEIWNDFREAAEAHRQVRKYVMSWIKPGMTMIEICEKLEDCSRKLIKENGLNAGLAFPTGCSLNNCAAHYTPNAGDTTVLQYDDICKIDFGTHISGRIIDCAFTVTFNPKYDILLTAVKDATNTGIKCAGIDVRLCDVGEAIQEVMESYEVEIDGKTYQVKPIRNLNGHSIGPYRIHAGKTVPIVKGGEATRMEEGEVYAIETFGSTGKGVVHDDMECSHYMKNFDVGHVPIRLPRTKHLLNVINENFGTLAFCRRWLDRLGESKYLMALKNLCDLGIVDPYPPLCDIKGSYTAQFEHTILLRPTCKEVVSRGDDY

[12] = BAEC proliferation, average of at least three experiments, read-out: Proliferation IC50
[13] = MetAP2 IC50 (nM), MetAP2 enzymatic activity, average of at least three experiments
[14] = BAEC, read-out: Proliferation IC50 (nM)
[15] = MetAP2 enzymatic activity, average of at least three experiments, read-out: MetAP2 IC50

Q: `CO[C@@H]1[C@H](OC(=O)NC(=O)CCl)CC[C@]2(CO2)[C@H]1[C@@]1(C)O[C@@H]1CC=C(C)C` [AGM-1470] was tested. Which IC50 [1, 12] did it give?
A: The IC50 was 0.037 ± 0.0024 nM.

Q: And the IC50 ([2]; IC50, methionine aminopeptidase activity of MetAP2, estimated, 1 nM of recombinant human MetAP2 used in the assay)?
A: Its IC50 is ~1 nM.

Q: What about the IC50 [2, 13] of the same compound?
A: Its IC50 is 1 ± 0.3 nM.

Q: What about the “MetAP2 bound by drug: inhibiting phosphorylation of eIF-2α by HRI” value [3] of the same compound?
A: The value was “as effective as unbound MetAP2”.

Q: And the “growth of wild type yeast” value [4]?
A: The value was “resistant”.

Q: And the “growth of the map1 mutant” value [5]?
A: Its value is “completely inhibited”.

Q: What about the “growth of map2 mutant yeast” value [6] of the same compound?
A: Its value is “resistant”.

Q: What about the “inhibition of MetAP activity of the type 1 enzyme” value [7] of the same compound?
A: Its value is “No inhibition”.

Q: And the “inhibition of the yeast MetAP2 enzyme” value [8]?
A: Its value is “completely inhibited”.

Q: And the “effect on p67 labeling by ovalicin photoaffinity probe” value [9]?
A: The value was “abrogated p67 labeling”.

Q: And the “mode of binding to MetAP2” value [10]?
A: Its value is “bound to MetAP2 covalently”.

Q: And the “competition of band reacting with anti-human MetAP2 antibodies” value ([11]; Western blot of protein retained by biotin-fumagillin and biotin-ovalicin conjugates)?
A: The value was “elimination of the cross-reacting band”.

Q: And the “p67 retention by biotin-ovalicin conjugate on immobilized streptavidin” value ([11]; mouse embryo extract, 50 μM competitor)?
A: The value was “sensitive”.

Q: What about the “competition of p67 binding by biotin-fumagillin” value ([11]; mouse embryo extract, 50 μM competitor, silver stain) of the same compound?
A: Its value is “competed”.

Q: Which results are given for `CO[C@@H]1[C@H](O)CC[C@]2(CO2)[C@@]1(O)[C@@]1(C)O[C@@H]1CC=C(C)C` [FOS-34, (3S,4R,5R,6R)-4-[(1′S,2′S)-1′,2′-Epoxy-1′,5′-dimethyl-4′-hexenyl]-5-methoxy-1-oxaspiror[2.5]octane-4,6-diol]?
A: IC50 [1, 14]: 2.2 ± 1.4 nM; IC50 [2, 13]: 4 ± 1 nM

Q: What does the source list for `COC1C(OC(=O)NC(=O)CCl)CCC(O)(CSC)C1(O)C1(C)OC1CC=C(C)C` [FOS-67, (1R,2S,3R,4R)-1-Methylthiomethylene-2-[(1′S,2′S)-1′,2′-epoxy-1′,5′-dimethyl-4′-hexenyl]-3-methoxy-4-O-(N-chloroacetyl)carbamoyl-cyclohexane-1,2,4-triol]?
A: IC50 [1, 12]: 40 ± 4 nM; IC50 [2, 15]: 400 ± 200 nM

Q: With `CO[C@@H]1[C@H](OC(=O)NC(=O)CCl)CC[C@]2(CO2)[C@@]1(O)[C@@]1(C)O[C@@H]1CC=C(C)C` [FOS-68, (3S,4R,5R,6R)-4-[(1′S,2′S)-1′,2′-Epoxy-1′,5′-dimethyl-4′-hexenyl]-5-methoxy-6-O(N-chloro-acetyl)carbamoyl-1-oxaspiror[2.5]octane-4,6-diol] as the compound, how does the IC50 [1, 12] read?
A: Its IC50 is 0.46 ± 0.26 nM.

Q: And the IC50 [2, 15]?
A: Its IC50 is 2 ± 0.8 nM.

Q: Which IC50 [1, 12] does the source give for `CO[C@@H]1[C@H](OC(=O)CCCCl)CC[C@]2(CO2)[C@@]1(O)[C@@]1(C)O[C@@H]1CC=C(C)C` [FOS-69, (3S,4R,5R,6R)-4-[(1′S,2′S)-1′,2′-Epoxy-1′5′-dimethyl-4′-hexenyl]-5-methoxy-6-O(4″chlorobutyryl)-1-oxaspiror[2.5]octane-4,6-diol] here?
A: Its IC50 is 0.31 ± 0.066 nM.

Q: What about the IC50 [2, 13] of the same compound?
A: Its IC50 is 0.1 ± 0.03 nM.

Q: What does the source list for `CO[C@@H]1C(=O)CC[C@]2(CO2)[C@H]1[C@@]1(C)O[C@@H]1CC=C(C)C` [FOS-72, (3R,4S,5S)-4-[(1′R,2′S)-1′,2′-Epoxy-1′,5′-dimethyl-4′-hexenyl]-5-methoxy-1-oxaspiror[2.5]octan-6-one]?
A: IC50 [1, 14]: 0.013 ± 0.0015 nM; IC50 [2, 15]: 6 ± 2 nM

Q: Which IC50 [1, 12] does the source give for `COC1C(O)CCC(O)(CSC)C1(O)C1(C)OC1CC=C(C)C` [FOS-201, (1R,2S,3R,4R)-1-Methylthiomethylene-2-[(1′S,2′S)-1′,2′-epoxy-1′,5′-dimethyl-4′hexenyl]-3-methoxycyclohexane-1,2,4-triol] here?
A: Its IC50 is 56 ± 34 nM.

Q: And the IC50 [2, 15]?
A: Its IC50 is 45 ± 12 nM.

Q: Which “growth of wild type yeast” value [4] does the source give for `CO[C@@H]1C(=O)CC[C@]2(CO2)[C@@]1(O)[C@@]1(C)O[C@@H]1CC=C(C)C` [Ovalicin] here?
A: Its value is “resistant”.

Q: And the “growth of the map1 mutant” value [5]?
A: The value was “completely inhibited”.

Q: What about the “inhibition of MetAP activity of the type 1 enzyme” value [7] of the same compound?
A: The value was “No inhibition”.

Q: What about the “inhibition of the yeast MetAP2 enzyme” value [8] of the same compound?
A: Its value is “completely inhibited”.

Q: `COC1C(OC(=O)NCCCCCCCCNC(=O)CCCCC2SCC3NC(=O)NC32)CCC2(CO2)C1C1(C)OC1CC=C(C)C` (centres unmarked) [biotin-fumagillin] was tested. Which “activity in the BAEC proliferation assay” value [1] did it give?
A: The value was “retain significant activity”.

Q: `CO[C@@H]1[C@H](OC(=O)NCCNC(=O)CCc2ccc(O)cc2)CC[C@]2(CO2)[C@@]1(O)C1(C)O[C@@H]1CC=C(C)C` (some centres unmarked) [photoaffinity label mimic] was tested. Which “activity in the BAEC proliferation assay” value [1] did it give?
A: The value was “retained significant, albeit decreased, activity”.

— US6566541B2, “Type 2 methionine aminopeptidase (MetAP2) inhibitors and uses thereof” (Massachusetts Institute of Technology, priority 1997, dated 2003)
